Results taken from patent publication US20090136448A1, “Antiviral 2-Carboxy-Thiophene Compounds” (priority 2005, published 2009).

Experiments:
[1] = tested on: HCV replication, genotype 1a (Huh-7 HCV replicon cell); assay: Replicon ELISA cell based assay, genotype 1a; conditions: Hepatitis C virus, Huh-7 HCV replicon cells, 72 hours, mean, assayed at least twice
Description: (§1) Replicon ELISA Cell Based Assay
(§2) 100 μL of medium containing 10% FCS were added to each well of clear, flat-bottomed 96 well microplates, excepting wells in the top row. Test compound was diluted in assay medium to twice the final required starting concentration from a 40 mM stock solution in DMSO. 200 μL of the starting dilution were introduced into two wells each in the top row and doubling dilutions made down the plate by the sequential transfer of 100 μL aliquots with thorough mixing in the wells; the final 100 μL were discarded. The two bottom rows were not used for compound dilutions. Huh-7 HCV replicon cell monolayers nearing confluency were stripped from growth flasks with versene-trypsin solution and the cells were resuspended in assay medium at either 2×10^5 cells/mL (sub-line 5-15; genotype 1b; Lohmann, V., Korner, F., Koch, J-O., Herian, U., Thielmann, L. and Bartenschlager, R., Science, 1999, 285, 110-113) or at 3×10^5 cells/mL (genotype 1a; Gu, B., Gates, A. T., Isken, O., Behrens, S. E. and Sarisky, R. T., J. Virol., 2003, 77, 5352-5359). 100 μL of cell suspension were added to all wells and the plates incubated at 37° C. for 72 hours in a 5% CO2 atmosphere.
(§3) Following incubation, the assay medium was aspirated from the plates. The cell sheets were washed by gentle immersion in phosphate buffered saline (PBS), which was then aspirated off, and fixed with acetone:methanol (1:1) for 5 minutes. Following a further wash with PBS, 100 μL of ELISA diluent (PBS+0.05% v/v Tween 20+2% w/v skimmed milk powder) were added to all wells and the plates incubated at 37° C. for 30 minutes on an orbital platform. The diluent was removed and each well then received 50 μL of a 1/200 dilution of anti-HCV specific, murine, monoclonal antibody (either Virostat #1872 or #1877), except for wells in one of the compound-free control rows which received diluent alone to act as negative controls. The plates were incubated at 37° C. for 2 hours and washed 3 times with PBS/0.05% Tween 20, then 50 μL of horseradish peroxidase conjugated, anti-mouse, rabbit polyclonal serum (Dako #P0260), diluted 1/1000, were added to all wells. The plates were incubated for a further hour, the antibody removed and the cell sheets washed 5 times with PBS/Tween and blotted dry. The assay was developed by the addition of 50 μL of ortho-phenylenediamine/peroxidase substrate in urea/citrate buffer (SigmaFast, Sigma #P-9187) to each well, and colour allowed to develop for up to 15 minutes. The reaction was stopped by the addition of 25 μL per well of 2 M sulphuric acid and the plates were read at 490 nm on a Fluostar Optima spectrophotometer.
(§4) The substrate solution was removed and the plates were washed in tap water, blotted dry and the cells stained with 5% carbol fuchsin in water for 30 minutes. The stain was discarded and the cell sheets washed, dried and examined microscopically to assess cytotoxicity.
(§5) The absorbance values from all compound-free wells that had received both primary and secondary antibodies were averaged to obtain a positive control value. The mean absorbance value from the compound-free wells that had not received the primary antibody was used to provide the negative (background) control value. The readings from the duplicate wells at each compound concentration were averaged and, after the subtraction of the mean background from all values, were expressed as a percentage of the positive control signal. The quantifiable and specific reduction of expressed protein detected by the ELISA in the presence of a drug can be used as a measure of replicon inhibition. GraFit software (Erithacus Software Ltd.) was used to plot the curve of percentage inhibition against compound concentration and derive the 50% inhibitory concentration (IC50) for the compound.

[2] = tested on: HCV replication, genotype 1b (Huh-7 HCV replicon cell, sub-line 5-15); assay: Replicon ELISA cell based assay, genotype 1b; conditions: Hepatitis C virus, Huh-7 HCV replicon cells, genotype 1b (sub-line 5-15), 72 hours, mean, assayed at least twice
Description: as §1, §2, §3, §4, §5

CC(C)N(c1cc(-c2ccc(-c3cc4cccnn4n3)cc2)sc1C(=O)O)C(=O)[C@H]1CC[C@H](C)CC1 [Example 24, 3-[[(trans-4-Methylcyclohexyl)carbonyl](1-methylethyl)amino]-5-(4-pyrazolo[1,5-b]pyridazin-2-ylphenyl)-2-thiophenecarboxylic acid]
IC50 [1]: 0.1 to 0.5 µM | IC50 [2]: 0.01 to 0.05 µM

CC(C)N(c1cc(-c2ccc(-c3cc4ncccn4n3)nc2)sc1C(=O)O)C(=O)[C@H]1CC[C@H](C)CC1 [Example 34, 3-[[(trans-4-Methylcyclohexyl)carbonyl](1-methylethyl)amino]-5-(6-pyrazolo[1,5-a]pyrimidin-2-yl-3-pyridinyl)-2-thiophenecarboxylic acid]
IC50 [1]: 0.01 to 0.05 µM | IC50 [2]: 0.05 to 0.1 µM

CC(C)N(c1cc(-c2ccc(-c3cc4cnccc4o3)cc2)sc1C(=O)O)C(=O)[C@H]1CC[C@H](C)CC1 [Example 12, 5-(4-Furo[3,2-c]pyridin-2-ylphenyl)-3-[[(trans-4-methylcyclohexyl)carbonyl](1-methylethyl)amino]-2-thiophenecarboxylic acid]
IC50 [1]: 0.1 to 0.5 µM | IC50 [2]: 0.05 to 0.1 µM

CC(C)N(c1cc(-c2ccc(-c3nc4cccnc4o3)cc2)sc1C(=O)O)C(=O)[C@H]1CC[C@H](C)CC1 [Example 11, 3-[[(4-Methylcyclohexyl)carbonyl](1-methylethyl)amino]-5-(4-[1,3]oxazolo[5,4-b]pyridin-2-ylphenyl)-2-thiophenecarboxylic acid]
IC50 [1]: 0.1 to 0.5 µM | IC50 [2]: 0.1 to 0.5 µM

CC(C)N(c1cc(-c2ccc(-c3nc4ncccc4o3)nc2)sc1C(=O)O)C(=O)[C@H]1CC[C@H](C)CC1 [Example 46, 3-[[(trans-4-Methylcyclohexyl)carbonyl](1-methylethyl)amino]-5-(6-[1,3]oxazolo[4,5-b]pyridin-2-yl-3-pyridinyl)-2-thiophenecarboxylic acid]
IC50 [1]: 0.1 to 0.5 µM | IC50 [2]: 0.1 to 0.5 µM

CC(C)N(c1cc(-c2ccc(-c3ccc4nc[nH]c4c3)cc2)sc1C(=O)O)C(=O)[C@H]1CC[C@H](C)CC1 [Example 28, 5-[4-(1H-Benzimidazol-5-yl)phenyl]-3-[[(trans-4-methylcyclohexyl)carbonyl](1-methylethyl)amino]-2-thiophenecarboxylic acid]
IC50 [1]: 0.1 to 0.5 µM | IC50 [2]: 0.1 to 0.5 µM

CC(C)N(c1cc(-c2ccc(-c3nc4c(N)cccc4o3)cc2)sc1C(=O)O)C(=O)[C@H]1CC[C@H](C)CC1 [Example 16, 5-[4-(4-Amino-1,3-benzoxazol-2-yl)phenyl]-3-[[(trans-4-methylcyclohexyl)carbonyl](1-methylethyl)amino]-2-thiophenecarboxylic acid]
IC50 [1]: 0.01 to 0.05 µM | IC50 [2]: 0.01 to 0.05 µM

CC(C)N(c1cc(-c2ccc(-c3cc4ncccn4n3)s2)sc1C(=O)O)C(=O)[C@H]1CC[C@H](C)CC1 [Example 36, 4-[[(trans-4-Methylcyclohexyl)carbonyl](1-methylethyl)amino]-5′-pyrazolo[1,5-a]pyrimidin-2-yl-2,2′-bithionhene-5-carboxylic acid]
IC50 [1]: 0.01 to 0.05 µM | IC50 [2]: 0.01 to 0.05 µM

CC(C)N(c1cc(-c2ccc(-c3cc4ncccn4n3)cc2)sc1C(=O)O)C(=O)[C@H]1CC[C@H](C(F)(F)F)CC1 [Example 15, 3-((1-Methylethyl){[trans-4-(trifluoromethyl)cyclohexyl]carbonyl}-amino)-5-(4-pyrazolo[1,5-a]pyrimidin-2-ylphenyl)-2-thiophenecarboxylic acid]
IC50 [1]: 0.1 to 0.5 µM | IC50 [2]: 0.05 to 0.1 µM

Cc1ccn2nc(-c3ccc(-c4cc(N(C(=O)[C@H]5CC[C@H](C(F)(F)F)CC5)C(C)C)c(C(=O)O)s4)cc3)cc2n1 [Example 26, 3-((1-Methylethyl){[trans-4-(trifluoromethyl)cyclohexyl]carbonyl}amino)-5-[4-(5-methylpyrazolo[1,5-a]pyrimidin-2-yl)phenyl]-2-thiophenecarboxylic acid]
IC50 [1]: 0.1 to 0.5 µM | IC50 [2]: 0.5 to 1 µM

CC(C)N(c1cc(-c2ccc(-c3cc4nccc(N)n4n3)cc2)sc1C(=O)O)C(=O)[C@H]1CC[C@H](C)CC1 [Example 7, 5-[4-(7-Aminopyrazolo[1,5-a]pyrimidin-2-yl)phenyl]-3-[[(trans-4-methylcyclohexyl)carbonyl](1-methylethyl)amino]-2-thiophenecarboxylic acid]
IC50 [1]: < 0.005 µM | IC50 [2]: < 0.005 µM

CC(C)N(c1cc(-c2ccc(-c3nc4cc(N)ccc4o3)cc2)sc1C(=O)O)C(=O)[C@H]1CC[C@H](C)CC1 [Example 10, 5-[4-(5-Amino-1,3-benzoxazol-2-yl)phenyl]-3-[[(trans-4-methylcyclohexyl)carbonyl](1-methylethyl)amino]-2-thiophenecarboxylic acid]
IC50 [1]: 0.05 to 0.1 µM | IC50 [2]: 0.1 to 0.5 µM

CC(C)N(c1cc(-c2ccc(-c3cc4cc(N)ccc4o3)cc2)sc1C(=O)O)C(=O)[C@H]1CC[C@H](C)CC1 [Example 29, 5-[4-(5-Amino-1-benzofuran-2-yl)phenyl]-3-[[(trans-4-methylcyclohexyl)carbonyl](1-methylethyl)amino]-2-thiophenecarboxylic acid]
IC50 [1]: 0.1 to 0.5 µM | IC50 [2]: 0.1 to 0.5 µM

CC(C)N(c1cc(-c2ccc(-c3cc4ccc(N)cc4o3)cc2)sc1C(=O)O)C(=O)[C@H]1CC[C@H](C)CC1 [Example 30, 5-[4-(6-Amino-1-benzofuran-2-yl)phenyl]-3-[[(trans-4-methylcyclohexyl)carbonyl](1-methylethyl)amino]-2-thiophenecarboxylic acid]
IC50 [1]: 0.1 to 0.5 µM | IC50 [2]: 0.5 to 1 µM

CC(C)N(c1cc(-c2ccc(-c3cn4ccsc4n3)nc2)sc1C(=O)O)C(=O)[C@H]1CC[C@H](C)CC1 [Example 32, 5-(6-Imidazo[2,1-b][1,3]thiazol-6-yl-3-pyridinyl)-3-[[(trans-4-methylcyclohexyl)carbonyl](1-methylethyl)amino]-2-thiophenecarboxylic acid]
IC50 [1]: 0.1 to 0.5 µM | IC50 [2]: 0.05 to 0.1 µM

CC(C)N(c1cc(-c2ccc(-c3cnc4occc4c3)cc2)sc1C(=O)O)C(=O)[C@H]1CC[C@H](C)CC1 [Example 9, 5-(4-Furo[2,3-b]pyridin-5-ylphenyl)-3-[[(trans-4-methylcyclohexyl)carbonyl](1-methylethyl)amino]-2-thiophenecarboxylic acid]
IC50 [1]: 0.1 to 0.5 µM | IC50 [2]: 0.05 to 0.1 µM

CC(C)N(c1cc(-c2ccc(-c3cn4ccccc4n3)cc2)sc1C(=O)O)C(=O)[C@H]1CC[C@H](C)CC1 [Example 3, 5-(4-Imidazo[1,2-a]pyridin-2-ylphenyl)-3-[[(trans-4-methylcyclohexyl)carbonyl](1-methylethyl)amino]-2-thiophenecarboxylic acid]
IC50 [1]: 0.05 to 0.1 µM | IC50 [2]: 0.01 to 0.05 µM

CC(C)N(c1cc(-c2ccc(-c3ccc4cc[nH]c4c3)cc2)sc1C(=O)O)C(=O)[C@H]1CC[C@H](C)CC1 [Example 42, 5-[4-(1H-Indol-6-yl)phenyl]-3-[[(trans-4-methylcyclohexyl)carbonyl](1-methylethyl)amino]-2-thiophenecarboxylic acid]
IC50 [1]: 0.1 to 0.5 µM | IC50 [2]: 0.01 to 0.05 µM

CC(C)N(c1cc(-c2ccc(-c3cn4ccccc4n3)cc2)sc1C(=O)O)C(=O)[C@H]1CC[C@H](C(F)(F)F)CC1 [Example 14, 5-(4-Imidazo[1,2-a]pyridin-2-ylphenyl)-3-((1-methylethyl){[trans-4-(trifluoromethyl)cyclohexyl]carbonyl}amino)-2-thiophenecarboxylic acid]
IC50 [1]: 0.1 to 0.5 µM | IC50 [2]: 0.5 to 1 µM

CC(C)N(c1cc(-c2ccc(-c3ccc4[nH]ccc4c3)cc2)sc1C(=O)O)C(=O)[C@H]1CC[C@H](C)CC1 [Example 41, 5-[4-(1H-Indol-5-yl)phenyl]-3-[[(trans-4-methylcyclohexyl)carbonyl](1-methylethyl)amino]-2-thiophenecarboxylic acid]
IC50 [1]: 0.1 to 0.5 µM | IC50 [2]: 0.05 to 0.1 µM
